Reference: patent US20080234331A1, “Synergistic Insecticidal Mixtures for the Treatment of Seed” (Bayer CropScience AG, priority 2005, published 2008)

System: Onions cv. Vaquero
Test: Onion yield after seed treatment with insecticidal active substances
Format: in vivo
Settings: for Yield in % relative to the insecticide-untreated control 1: onion seed cv. Vaquero pretreated with thiram 2 g ai/kg and carbendazim 1 g ai/kg, seed treatment, total application rate 0.18 mg ai/seed (mixture 0.09 + 0.09); for growth-promoting effect with regard to the yield (in words): onion seed treatment, same total application rate
Procedure: Onions cv. Vaquero from the Dutch company Nunhems were pretreated uniformly with the fungicidal active substances thiram (2 g ai/kg) and carbendazim (1 g ai/kg) by customary methods. Thereafter, the seed was treated as follows, using insecticidal active substances: • 1. control, no insecticides • 2. Poncho WS 70 (clothianidin) at 0.18 mg ai/seed • 3. Gaucho WS 70 (imidacloprid) at 0.18 mg ai/seed • 4. clothianidin+imidacloprid at 0.09+0.09 mg ai/seed

Row | SMILES | Yield in % relative to the insecticide-untreated control 1 [%] | growth-promoting effect with regard to the yield (in words)
1 | CN/C(=N\[N+](=O)[O-])NCc1cnc(Cl)s1 [clothianidin] | 137 | growth-promoting effect
2 | O=[N+]([O-])/N=C1\NCCN1Cc1ccc(Cl)nc1 [imidacloprid] | 109 | growth-promoting effect
